Patent US8252832B2, “Kinesin inhibitors as cancer therapeutics” (Novartis AG, priority 2007, dated 2012)

Experiments:
T47-D = assay: CTG (CellTiter-Glo) screening assay; type: cell-based; settings: Homo sapiens, T47D
Excerpt: (§1) Identification of tumor types that are the most sensitive to the KSP inhibitors of the present invention can be accomplished using an unbiased approach that uses several cell-based assays. The assays chosen were as follows: • CellTiter-Glo®. This is an assay designed to measure ATP concentration in a cell culture, and can be correlated to cell number. Briefly CellTiter-Glo® (Promega Corporation) is a homogeneous method using the single CellTiter-Glo® reagent to detect ATP wherein ATP in the assay drives the activity of a thermostable luciferase to create a luminescent signal which can then be measured and correlated with the number of viable cells. Briefly, for adherent cells, 1,000 to 5,000 cells/well were plated in 96-well plates (100 μl/well) and let to adhere for 24 hours before being treated with drug. For non-adherent cells, 1,000 to 10,000 cells/well were plated in 96-well plates (100 μl/well) and immediately treated with drug. Drug dilutions were prepared in DMSO at 1000 times the final concentration. These dilutions were then diluted 1/100 in growth media before being added to the cells (11 μl/well) to achieve the desired final concentration. After 48 h in a 37° C. tissue culture incubator, the plates were processed for the CellTiter-Glo®assay according to the manufacturer's instructions. Protocol for a 72 hour cell proliferation assay: The 72 hour assay was performed the same way as the 48 hour assay except for the following modifications: For adherent cells, 500 to 5,000 cells/well were plated in 96-well plates (90 μl/well cell growth media) and left to adhere for 24 hours before being treated with drug. For non-adherent cells, 1,000 to 10,000 cells/well were plated in 96-well plates (90 μl/well cell growth media) and immediately treated with drug. Data values presented represent the concentration of test compound required for a 50% reduction in growth. • LDH release. The Cytotoxicity Detection KitPLUS (LDH) assay (Roche Diagnostics, Manheim, Germany) measures the amount of LDH released in the media by dying cells; LDH catalyzes the conversion of lactate into pyruvate. The enzymatic reaction is coupled to a chemical reaction that uses a tetrazolium salt to form a formazan that is red and can be detected by its absorbance at 490 nm. This assay measures the amount of cell death after drug treatment. Cells were plated at 10,000 cells/well in 96-well plates (100 μl/well). Adherent cells were let to adhere for 24 hours before being treated with drug, whereas non-adherent cells were immediately treated with drug. Drug dilutions were prepared in DMSO at 1000 times the final concentration. These dilutions were then diluted 1/100 in growth media before being added to the cells (11 μl/well) to achieve the desired final concentration. After 48 h in a 37° C. tissue culture incubator, the plates were processed for the Cytotoxicity Detection KitPLUS (LDH) assay according to the manufacturer's instructions. The media only values were subtracted from all the data points before analysis. Data values presented correspond to the compound concentration wherein LDH output is at half maximal level. • Caspase-Glo® 3/7. The Caspase-Glo® 3/7 Assay (Promega Corporation) is a homogeneous luminescent assay that measures caspase-3/7 activities. The assay provides a proluminescent caspase-3/7 DEVD-aminoluciferin substrate and a thermostable luciferase in a reagent optimized for caspase-3/7 activity, luciferase activity and cell lysis. Adding the single Caspase-Glo® 3/7 Reagent results in cell lysis, followed by caspase cleavage of the substrate. This liberates free aminoluciferin, which is consumed by the luciferase, generating a luminescent signal. The signal is proportional to caspase-3/7 activity. Data values presented correspond to the compound concentration wherein caspase 3/7 activity is at half maximal level.

HT29 = assay: CTG (CellTiter-Glo) screening assay; type: cell-based; settings: Homo sapiens, HT-29
Excerpt: as §1

Structure (SMILES): CC(C)(C)[C@H](c1nc(-c2cc(F)ccc2F)cn1Cc1ccccc1)N(CC[C@H](N)CF)C(=O)CO [Compound IIa]
- GI50 (T47-D; 24 h): > 5 nM
- GI50 (T47-D; 48 h): > 5 nM
- GI50 (T47-D; 72 h): 0.45 nM
- GI50 (HT29; HT29, 24 h): > 5 nM
- GI50 (HT29; HT29, 48 h): > 5 nM
- GI50 (HT29; HT29, 72 h): 0.21 nM
